Values joined by “and” are separate entries in the source; they are usually repeats but may differ in a detail not shown here. Identical values can stand only once. Like-named read-outs stand apart in the source and are kept apart here.

The test system of one assay is A549 (lung). The assay is described as follows: Cancer cell proliferation assay (acid phosphatase). The format is cell-based. To be noted: Table 6A, 72 hrs, read-out: A549 IC50. On the procedure:
(§1) Measurement of the inhibitive effect of compounds on cancer cell proliferation was performed. Various cell lines were tested, including HCT-116 (colon); A549 (lung); TOV-21G (ovarian); Calu-6 (lung); and LS-174T (colon); and cell lines H1703 (Lung) and SKOV3 (ovarian); JEKO-1 (lymophoma); TOV-112D (ovarian) are tested. The assays were performed under the following conditions: Cells are harvested at a concentration of 4×10^4 cells/ml in media. Volumes of 100 μl/well of these cell suspensions were added to a 96 well plate using a multichannel pipette. Plates were gently agitated to ensure an even dispersion of cells over a given plate. Cells were then incubated at 37° C., 5% CO2 overnight. Following this, 100 μl of compound at varying concentrations was added to wells in triplicate. Control wells are those with 100 μl media containing 0.33% DMSO added to cell suspension (this is the equivalent volume of DMSO found in the highest concentration of drug). Plates were then gently agitated, as above, and incubated at 37° C., 5% CO2 for 72 hrs (control wells have reached 80-90% confluency). Assessment of cell proliferation in the presence of the compound was determined by the acid phosphatase assay.
(§2) Following the incubation period of 72 hrs, media was removed from the plates. Each well on the plate was washed twice with 100 μl PBS. This was then removed and 100 μl of freshly prepared phosphatase substrate (10 mM p-nitrophenol phosphate in 0.1M sodium acetate, 0.1% triton X-100, pH 5.5) was added to each well. The plates were then incubated in the dark at 37° C. for 2 hours. Colour development was monitored during this time. The enzymatic reaction was stopped by the addition of 50 μl of 1N NaOH. The plate was read in a dual beam plate reader at 405 nm with a reference wavelength of 620 nm. The absorbance reading of the latter is subtracted from the former, and the effect of the drug on cell proliferation was then measured as a percentage against the control cells (DMSO), which is taken as 0% inhibition.

The next assay concerns HCT-116 (colon). The assay is described as follows: Cancer cell proliferation assay (acid phosphatase). The format is cell-based. To be noted: Table 6A, 72 hrs, read-out: HCT-116 IC50. On the procedure: as §1, §2
Another assay deals with TOV-21G (ovarian). The assay is described as follows: Cancer cell proliferation assay (acid phosphatase). The format is cell-based. To be noted: Table 6A, 72 hrs, read-out: TOV-21G IC50. On the procedure: as §1, §2
For a further assay, the target named is T1, Parkin ligase (Homo sapiens, UniProt O60260).
T1 sequence (O60260 1-465): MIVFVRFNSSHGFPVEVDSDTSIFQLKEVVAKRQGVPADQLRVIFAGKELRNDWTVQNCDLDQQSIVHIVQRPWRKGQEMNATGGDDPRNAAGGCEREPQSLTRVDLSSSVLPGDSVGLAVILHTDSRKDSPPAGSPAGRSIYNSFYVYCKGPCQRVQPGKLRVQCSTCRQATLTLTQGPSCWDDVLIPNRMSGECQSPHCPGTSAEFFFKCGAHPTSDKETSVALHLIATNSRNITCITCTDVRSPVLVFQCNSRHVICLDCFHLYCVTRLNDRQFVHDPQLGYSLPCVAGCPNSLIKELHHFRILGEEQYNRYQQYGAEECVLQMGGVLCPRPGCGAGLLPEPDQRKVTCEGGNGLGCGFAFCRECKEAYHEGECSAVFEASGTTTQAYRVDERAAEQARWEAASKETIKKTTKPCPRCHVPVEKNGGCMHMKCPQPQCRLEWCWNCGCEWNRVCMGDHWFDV
The assay is described as follows: Activity-Based Probe Assay using Ubiquitin vinyl sulfone probe (TR-FRET). The assay is classed as biochemical. The note with it: heat activated Parkin, HA-Ub-VS probe, activation EC50; read-out: Probe Assay EC50 (μM) [Example 2]. Put shortly:
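Heat-activated His-Parkin (5 min, 58 °C; 40 nM) was preincubated 15 min with compound, then reacted 60 min at 22 °C with 70 nM HA-Ub-VS in 50 mM HEPES pH 8.5, 150 mM NaCl, 0.01% Tween 20, 0.1% BSA. Probe labelling was read by anti-His-Eu/anti-HA-XL665 TR-FRET (665/615 ratio). % activation was normalized to DMSO and 100 nM control activator, then fitted with a four-parameter curve (Bottom=0, Top=100).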

As for `Cc1ccccc1C(=O)Nc1nc(-c2cccc(F)n2)nn1-c1cccc(F)c1` [Compound 128], the half-inhibitory concentration (IC50) (as a rule, the midpoint of a concentration-inhibition curve) in the assay with A549 (lung) (Homo sapiens, A549, 72 h) amounted to 2.5 µM; in the assay on HCT-116 (colon) (Homo sapiens, HCT-116, 72 h) it was 2.5 µM; with TOV-21G (ovarian) (Homo sapiens, TOV21G, 72 h), 2.4 µM. Further, the EC50 (as a rule, the concentration at which the effect is half-maximal) at Parkin ligase was found to be 5 µM.
As to `Cc1cccc(-c2nc(NC(=O)c3ccccc3C)n(-c3ccc(C(F)(F)F)cc3)n2)n1` [Compound 133], the IC50 came to 2.5 µM with A549 (lung) (Homo sapiens, A549, 72 h); 2.3 µM in the assay with HCT-116 (colon) (Homo sapiens, HCT-116, 72 h); 1.8 µM in the assay with TOV-21G (ovarian) (Homo sapiens, TOV21G, 72 h). Also, the concentration for a half-maximal effect (EC50) at Parkin ligase is 1 µM.
As for `Cc1ccccc1C(=O)Nc1nc(-c2cccc(F)n2)nn1-c1ccc(Cl)cc1` [Compound 134], the IC50 with A549 (lung) (Homo sapiens, A549, 72 h) worked out at 2.6 µM; in the assay on HCT-116 (colon) (Homo sapiens, HCT-116, 72 h) it was 2.3 µM; with TOV-21G (ovarian) (Homo sapiens, TOV21G, 72 h), 1.8 µM. In addition, the EC50 on Parkin ligase stood at 4 µM.
On the same counts, the results for `Cc1ccccc1C(=O)Nc1nc(-c2cccc(F)n2)nn1-c1ccc(OC(F)(F)F)cc1` [Compound 129] are 2.5 µM, 2.4 µM, 2 µM and 3 µM.
For `Cc1ccccc1C(=O)Nc1nc(NC(=O)c2ccno2)n(-c2ccc(OC(F)(F)F)cc2)n1` [Compound 71], the 50% inhibitory concentration (IC50) in the assay on A549 (lung) (Homo sapiens, A549, 72 h) is 2.4 µM; in the assay with HCT-116 (colon) (Homo sapiens, HCT-116, 72 h), 2.5 µM. For the same compound, the EC50 on Parkin ligase amounted to 3 µM.
For `Cc1cccc(C(=O)Nc2nc(NC(=O)c3cccc(C)c3)n(-c3ccccc3)n2)c1` [Compound F3], the IC50 was determined as 2.3 µM with A549 (lung) (Homo sapiens, A549, 72 h); 2 µM in the assay on HCT-116 (colon) (Homo sapiens, HCT-116, 72 h); 2.3 µM in the assay on TOV-21G (ovarian) (Homo sapiens, TOV21G, 72 h).
With `Cc1ccccc1C(=O)Nc1nc(NCc2ccccc2Cl)nn1-c1ccc(OC(F)(F)F)cc1` [Compound 116], the IC50 in the assay with A549 (lung) (Homo sapiens, A549, 72 h) is over 2.5 µM; with HCT-116 (colon) (Homo sapiens, HCT-116, 72 h), over 2.5 µM; in the assay with TOV-21G (ovarian) (Homo sapiens, TOV21G, 72 h), over 2.5 µM. On Parkin ligase, the EC50 turned out to be 2 µM.
For the compound `Cc1ccccc1C(=O)Nc1nc(-c2cccc(F)n2)nn1-c1ccc(C(F)(F)F)cc1` [Compound 131], the IC50 came out at 2.3 µM in the assay with A549 (lung) (Homo sapiens, A549, 72 h); 2.3 µM in the assay with HCT-116 (colon) (Homo sapiens, HCT-116, 72 h); 2.2 µM with TOV-21G (ovarian) (Homo sapiens, TOV21G, 72 h). The EC50 on Parkin ligase came out at 2 µM.
With `O=C(Nc1nc(NC(=O)c2ccncc2)n(-c2ccc(OC(F)(F)F)cc2)n1)c1ccncc1` [Compound 65], the IC50 in the assay on HCT-116 (colon) (Homo sapiens, HCT-116, 72 h) came out at 2.5 µM; in the assay with TOV-21G (ovarian) (Homo sapiens, TOV21G, 72 h) it was 2.5 µM. Also, the concentration giving a half-maximal response (EC50) at Parkin ligase turned out to be 5 µM.
On to `Cc1ccccc1C(=O)Nc1nc(NC(=O)c2ccccc2C)n(-c2ccc(N3CCN(C(=O)OC(C)(C)C)CC3)cc2)n1` [Compound 59], for which the IC50 was 810 µM with A549 (lung) (Homo sapiens, A549, 72 h); 801 µM with HCT-116 (colon) (Homo sapiens, HCT-116, 72 h); 0.938 µM in the assay on TOV-21G (ovarian) (Homo sapiens, TOV21G, 72 h, heading: TOV-21G IC50). Further, at Parkin ligase, the concentration for a half-maximal effect (EC50) is 3 µM.
As to `Cc1ccccc1C(=O)Nc1nc(NC(=O)c2ccno2)n(-c2cccc(F)c2)n1` [Compound 73], the IC50 in the assay on A549 (lung) (Homo sapiens, A549, 72 h) turned out to be 2.5 µM; with HCT-116 (colon) (Homo sapiens, HCT-116, 72 h), 2.5 µM. Besides, the EC50 on Parkin ligase came out at 12 µM.
Regarding `O=C(Nc1nc(NC(=O)c2cccnc2)n(-c2ccc(C(F)(F)F)cc2)n1)c1cccnc1` [Compound 62], the IC50 amounted to 2 µM in the assay with A549 (lung) (Homo sapiens, A549, 72 h) and 2.7 µM in the assay on HCT-116 (colon) (Homo sapiens, HCT-116, 72 h). In addition, on Parkin ligase, the concentration for a half-maximal effect (EC50) was determined as 8 µM.
In the case of `Cc1ccccc1C(=O)Nc1nc(-c2ncccc2C)nn1-c1cccc(F)c1` [Compound 146], the IC50 in the assay on A549 (lung) (Homo sapiens, A549, 72 h) came out at 0.3 µM; in the assay on HCT-116 (colon) (Homo sapiens, HCT-116, 72 h), 0.4 µM; in the assay with TOV-21G (ovarian) (Homo sapiens, TOV21G, 72 h), 0.5 µM. Also, the EC50 on Parkin ligase was determined as 1 µM.
As for `Cc1ccccc1C(=O)Nc1nc(NCc2ccccc2)nn1-c1ccc(Cl)cc1` [Compound 108], the IC50 was over 2.5 µM with A549 (lung) (Homo sapiens, A549, 72 h); over 2.5 µM in the assay on HCT-116 (colon) (Homo sapiens, HCT-116, 72 h); over 2.5 µM in the assay with TOV-21G (ovarian) (Homo sapiens, TOV21G, 72 h). Further, the EC50 on Parkin ligase is 1.5 µM.
On to `Cc1ccccc1C(=O)Nc1nc(-c2cccc(F)n2)nn1-c1cccc(F)c1` [Compound 132], for which the IC50 with A549 (lung) was found to be 2.4 µM; with HCT-116 (colon), 2.2 µM; in the assay with TOV-21G (ovarian) it was 1.9 µM. The EC50 on Parkin ligase was determined as 3 µM.
`O=C(Nc1nc(NC(=O)c2cccnc2)n(-c2ccc(OC(F)(F)F)cc2)n1)c1cccnc1` [Compound 61]: the IC50 in the assay with HCT-116 (colon) (Homo sapiens, HCT-116, 72 h) worked out at 2.1 µM; in the assay on TOV-21G (ovarian) (Homo sapiens, TOV21G, 72 h), 1.4 µM. The EC50 on Parkin ligase was 12 µM and 10 µM and 13 µM.

For the origin of these results see patent US10889553B2, “Asymmetric triazole benzamide derivatives and the compositions and methods of treatment regarding the same” (NysnoBio Ireland DAC, priority 2017, dated 2021).
